Experimental data as given in patent publication US20220347171A1, “TREATMENT OF PRURIGO NODULARIS” (TREVI THERAPEUTICS, INC., priority 2016, published 2022).
Counter-ions that a name gives are not always drawn.

Test system: prurigo nodularis patients
Assay: TR03ext (Example 3): PAS prurigo lesions with excoriations/crusts; Stage 0 0%, Stage 1 1%-25%, Stage 2 26%-50%, Stage 3 51%-75%, Stage 4 76%-100%
Assay type: in vivo, human
Source text: In some embodiments, after the treatment the patient experiences a substantial reduction of itch that is characterized by at least one category/stage improvement in Prurigo Activity Score (PAS). In particular embodiments, after the treatment the patient experiences a reduction of itch that results in at least one category/stage improvement in Prurigo Activity Score (PAS) domains of number of prurigo lesions, prurigo lesions with excoriations/crusts and/or healed prurigo lesions. The PAS consists of 7 qualitative and quantitative measurements related to the examination of the skin. Type, number, distribution, affected body parts, and quantitative number of lesions in a representative body part are documented. The biggest lesion and the most representative lesion are monitored with documentation of height and area measurements. Prurigo lesion activity is recorded as a percentages based on their stage (0-4). In some embodiments, number measurements of lesions on the body have four numerical categories: 0, 1-19, 20-100 and >100. In some embodiments, prurigo lesions with excoriations/crusts have five categories: Stage 4 (76%-100%), Stage 3 (51%-75%), Stage 2 (26%-50%), Stage 1 (1-25%) and Stage 0 (0%). In some embodiments, healed prurigo lesions have five categories: Stage 4 (0-24%), Stage 3 (25-49%), Stage 2 (50-74%), Stage 1 (75%-99%), Stage 0 (100%).
This clinical study was a Phase 2 Open Label Extension Study (clinical study TR03ext) of the randomized, double-blind, 3-parallel arm, placebo controlled dose ranging study described in Example 2. All those subjects who were randomized, and then completed Example 2 study, were eligible to participate in the Extension Study.
The primary endpoint was a description of the overall incidence and nature of Treatment-Emergent AEs (TEAES) during weeks 5-50 of the study. Exploratory efficacy endpoints included Change from Baseline patient reported outcome measures of Worst itch NRS, itchy VRS and ItchyQoL, by Treatment Period study visit and Baseline NRS score. There was also an assessment of any potential skin lesion changes over time using the metrics of the PAS.
Patients in Extension Study were titrated over a dose range of 30 mg QD to 180 mg BID based on tolerability. The selected dose range was based on Example 2 study whereby patients were titrated from a 30 mg QD dose either to 30 mg BID, 60 mg BID, 90 mg BID, 120 mg BID or a 180 mg BID dose. The highest dose proposed was 180 mg BID (360 mg daily dose), and was well below the highest recommended daily treatment of 160 mg IV (equivalent to 960 mg oral) for the current marketed parenteral administered product.
Table 15, 16 and 17 display excoriations/crusts lesion PAS data for subjects who received treatment for at least 6 months, subjects who received treatment for at least 9 months and subjects who completed 50 weeks of treatment in the study, respectively. The status of the prurigo lesions with excoriations/crusts is reported as percentages based on their stage (0-4) using a grading system: Stage 0 (0% excoriations/crusts); Stage 1 (1%-25% excoriations/crusts); Stage 2 (26%-50% excoriations/crusts); Stage 3 (51%-75% excoriations/crusts); Stage 4: (76%-100% excoriations/crusts). Thus, the higher the stage, the more severe is the prurigo skin pathology.

[1] = treatment for at least 6 months
[2] = treatment for at least 9 months

Oc1ccc2c3c1OC1[C@@H](O)CC[C@@]4(O)[C@@H](C2)N(CC2CCC2)CC[C@]314 (stereo partly drawn) [Nalbuphine, 17-(cyclobutylmethyl)-4,5α-epoxymorphinian-3, 6α, 14-triol, hydrochloride]
Excoriated/Crusts PAS Category Shift: Baseline Stage 2 to Last Observed Stage 3 [1]: 0 Number (%) of Subjects
Excoriated/Crusts PAS Category Shift: Baseline Stage 2 to Last Observed Stage 4 [1]: 0 Number (%) of Subjects
Excoriated/Crusts PAS Category Shift: Baseline Stage 3 to Last Observed Stage 0 [1]: 0 Number (%) of Subjects
Excoriated/Crusts PAS Category Shift: Baseline Stage 3 to Last Observed Stage 1 [1]: 1 (5.9%) Number (%) of Subjects
Excoriated/Crusts PAS Category Shift: Baseline Stage 3 to Last Observed Stage 2 [1]: 2 (11.8%) Number (%) of Subjects
Excoriated/Crusts PAS Category Shift: Baseline Stage 3 to Last Observed Stage 3 [1]: 1 (5.9%) Number (%) of Subjects
Excoriated/Crusts PAS Category Shift: Baseline Stage 3 to Last Observed Stage 4 [1]: 0 Number (%) of Subjects
Excoriated/Crusts PAS Category Shift: Baseline Stage 4 to Last Observed Stage 0 [1]: 1 (5.9%) Number (%) of Subjects
Excoriated/Crusts PAS Category Shift: Baseline Stage 4 to Last Observed Stage 1 [1]: 2 (11.8%) Number (%) of Subjects
Excoriated/Crusts PAS Category Shift: Baseline Stage 4 to Last Observed Stage 2 [1]: 0 Number (%) of Subjects
Excoriated/Crusts PAS Category Shift: Baseline Stage 4 to Last Observed Stage 3 [1]: 0 Number (%) of Subjects
Excoriated/Crusts PAS Category Shift: Baseline Stage 4 to Last Observed Stage 4 [1]: 1 (5.9%) Number (%) of Subjects
Excoriated/Crusts PAS: Last Observed PAS Result Stage 0 [1]: 3 (17.6) Number (%) of Subjects
Excoriated/Crusts PAS: Last Observed PAS Result Stage 1 [1]: 9 (52.9) Number (%) of Subjects
Excoriated/Crusts PAS: Last Observed PAS Result Stage 2 [1]: 2 (11.8) Number (%) of Subjects
Excoriated/Crusts PAS: Last Observed PAS Result Stage 3 [1]: 1 (5.9) Number (%) of Subjects
Excoriated/Crusts PAS: Last Observed PAS Result Stage 4 [1]: 2 (11.8) Number (%) of Subjects
Excoriated/Crusts PAS Category Shift: Baseline Stage 0 to Last Observed Stage 0 [2]: 1 (7.1%) Number (%) of Subjects
Excoriated/Crusts PAS Category Shift: Baseline Stage 0 to Last Observed Stage 1 [2]: 0 Number (%) of Subjects
Excoriated/Crusts PAS Category Shift: Baseline Stage 0 to Last Observed Stage 2 [2]: 0 Number (%) of Subjects
Excoriated/Crusts PAS Category Shift: Baseline Stage 0 to Last Observed Stage 3 [2]: 0 Number (%) of Subjects
Excoriated/Crusts PAS Category Shift: Baseline Stage 0 to Last Observed Stage 4 [2]: 0 Number (%) of Subjects
Excoriated/Crusts PAS Category Shift: Baseline Stage 1 to Last Observed Stage 0 [2]: 0 Number (%) of Subjects
Excoriated/Crusts PAS Category Shift: Baseline Stage 1 to Last Observed Stage 1 [2]: 1 (7.1%) Number (%) of Subjects
Excoriated/Crusts PAS Category Shift: Baseline Stage 1 to Last Observed Stage 2 [2]: 0 Number (%) of Subjects
Excoriated/Crusts PAS Category Shift: Baseline Stage 1 to Last Observed Stage 3 [2]: 0 Number (%) of Subjects
Excoriated/Crusts PAS Category Shift: Baseline Stage 1 to Last Observed Stage 4 [2]: 1 (7.1%) Number (%) of Subjects
Excoriated/Crusts PAS Category Shift: Baseline Stage 2 to Last Observed Stage 0 [2]: 0 Number (%) of Subjects
Excoriated/Crusts PAS Category Shift: Baseline Stage 2 to Last Observed Stage 1 [2]: 5 (35.7%) Number (%) of Subjects
Excoriated/Crusts PAS Category Shift: Baseline Stage 2 to Last Observed Stage 2 [2]: 0 Number (%) of Subjects
Excoriated/Crusts PAS Category Shift: Baseline Stage 2 to Last Observed Stage 3 [2]: 0 Number (%) of Subjects
Excoriated/Crusts PAS Category Shift: Baseline Stage 2 to Last Observed Stage 4 [2]: 0 Number (%) of Subjects
Excoriated/Crusts PAS Category Shift: Baseline Stage 3 to Last Observed Stage 0 [2]: 0 Number (%) of Subjects
Excoriated/Crusts PAS Category Shift: Baseline Stage 3 to Last Observed Stage 1 [2]: 0 Number (%) of Subjects
Excoriated/Crusts PAS Category Shift: Baseline Stage 3 to Last Observed Stage 2 [2]: 2 (14.3%) Number (%) of Subjects
Excoriated/Crusts PAS Category Shift: Baseline Stage 3 to Last Observed Stage 3 [2]: 1 (7.1%) Number (%) of Subjects
Excoriated/Crusts PAS Category Shift: Baseline Stage 3 to Last Observed Stage 4 [2]: 0 Number (%) of Subjects
Excoriated/Crusts PAS Category Shift: Baseline Stage 4 to Last Observed Stage 0 [2]: 1 (7.1%) Number (%) of Subjects
Excoriated/Crusts PAS Category Shift: Baseline Stage 4 to Last Observed Stage 1 [2]: 1 (7.1%) Number (%) of Subjects
Excoriated/Crusts PAS Category Shift: Baseline Stage 4 to Last Observed Stage 2 [2]: 0 Number (%) of Subjects
Excoriated/Crusts PAS Category Shift: Baseline Stage 4 to Last Observed Stage 3 [2]: 0 Number (%) of Subjects
Excoriated/Crusts PAS Category Shift: Baseline Stage 4 to Last Observed Stage 4 [2]: 1 (7.1%) Number (%) of Subjects
Excoriated/Crusts PAS: Last Observed PAS Result Stage 0 [2]: 2 (14.3) Number (%) of Subjects
Excoriated/Crusts PAS: Last Observed PAS Result Stage 1 [2]: 7 (50.0) Number (%) of Subjects
Excoriated/Crusts PAS: Last Observed PAS Result Stage 2 [2]: 2 (14.3) Number (%) of Subjects
Excoriated/Crusts PAS: Last Observed PAS Result Stage 3 [2]: 1 (7.1) Number (%) of Subjects
Excoriated/Crusts PAS: Last Observed PAS Result Stage 4 [2]: 2 (14.3) Number (%) of Subjects
